Reference: US11208412B2 (DAEGU-GYEONGBUK MEDICAL INNOVATION FOUNDATION, priority 2017, dated 2021)

Each compound was assayed against T1, recombinant LRRK2 kinase (Homo sapiens, UniProt Q5S007) (assay: LRRK2 kinase inhibition (Kinase-Glo luminescence)). Conditions: IC50 grade; 25 μmol/L ATP, LRRKtide, 30° C. 2 hours; read-out: Enzyme activity LRRK2.
T1 construct: purchased Signal Chem, Richmond, BC, Canada
Format: biochemical
Procedure: Upon completion of the reaction, an equal amount of Kinase-Glo (Promega, Madison, Wis.) solution was added thereto, followed by reaction for 40 minutes. A detection solution was added thereto, followed by further reaction at room temperature for 30 minutes. Then, IC50 of kinase was calculated by measuring the amount of luciferase using a microplate ELISA reader (Bio-Tek).

T1 sequence (Q5S007 whole entry): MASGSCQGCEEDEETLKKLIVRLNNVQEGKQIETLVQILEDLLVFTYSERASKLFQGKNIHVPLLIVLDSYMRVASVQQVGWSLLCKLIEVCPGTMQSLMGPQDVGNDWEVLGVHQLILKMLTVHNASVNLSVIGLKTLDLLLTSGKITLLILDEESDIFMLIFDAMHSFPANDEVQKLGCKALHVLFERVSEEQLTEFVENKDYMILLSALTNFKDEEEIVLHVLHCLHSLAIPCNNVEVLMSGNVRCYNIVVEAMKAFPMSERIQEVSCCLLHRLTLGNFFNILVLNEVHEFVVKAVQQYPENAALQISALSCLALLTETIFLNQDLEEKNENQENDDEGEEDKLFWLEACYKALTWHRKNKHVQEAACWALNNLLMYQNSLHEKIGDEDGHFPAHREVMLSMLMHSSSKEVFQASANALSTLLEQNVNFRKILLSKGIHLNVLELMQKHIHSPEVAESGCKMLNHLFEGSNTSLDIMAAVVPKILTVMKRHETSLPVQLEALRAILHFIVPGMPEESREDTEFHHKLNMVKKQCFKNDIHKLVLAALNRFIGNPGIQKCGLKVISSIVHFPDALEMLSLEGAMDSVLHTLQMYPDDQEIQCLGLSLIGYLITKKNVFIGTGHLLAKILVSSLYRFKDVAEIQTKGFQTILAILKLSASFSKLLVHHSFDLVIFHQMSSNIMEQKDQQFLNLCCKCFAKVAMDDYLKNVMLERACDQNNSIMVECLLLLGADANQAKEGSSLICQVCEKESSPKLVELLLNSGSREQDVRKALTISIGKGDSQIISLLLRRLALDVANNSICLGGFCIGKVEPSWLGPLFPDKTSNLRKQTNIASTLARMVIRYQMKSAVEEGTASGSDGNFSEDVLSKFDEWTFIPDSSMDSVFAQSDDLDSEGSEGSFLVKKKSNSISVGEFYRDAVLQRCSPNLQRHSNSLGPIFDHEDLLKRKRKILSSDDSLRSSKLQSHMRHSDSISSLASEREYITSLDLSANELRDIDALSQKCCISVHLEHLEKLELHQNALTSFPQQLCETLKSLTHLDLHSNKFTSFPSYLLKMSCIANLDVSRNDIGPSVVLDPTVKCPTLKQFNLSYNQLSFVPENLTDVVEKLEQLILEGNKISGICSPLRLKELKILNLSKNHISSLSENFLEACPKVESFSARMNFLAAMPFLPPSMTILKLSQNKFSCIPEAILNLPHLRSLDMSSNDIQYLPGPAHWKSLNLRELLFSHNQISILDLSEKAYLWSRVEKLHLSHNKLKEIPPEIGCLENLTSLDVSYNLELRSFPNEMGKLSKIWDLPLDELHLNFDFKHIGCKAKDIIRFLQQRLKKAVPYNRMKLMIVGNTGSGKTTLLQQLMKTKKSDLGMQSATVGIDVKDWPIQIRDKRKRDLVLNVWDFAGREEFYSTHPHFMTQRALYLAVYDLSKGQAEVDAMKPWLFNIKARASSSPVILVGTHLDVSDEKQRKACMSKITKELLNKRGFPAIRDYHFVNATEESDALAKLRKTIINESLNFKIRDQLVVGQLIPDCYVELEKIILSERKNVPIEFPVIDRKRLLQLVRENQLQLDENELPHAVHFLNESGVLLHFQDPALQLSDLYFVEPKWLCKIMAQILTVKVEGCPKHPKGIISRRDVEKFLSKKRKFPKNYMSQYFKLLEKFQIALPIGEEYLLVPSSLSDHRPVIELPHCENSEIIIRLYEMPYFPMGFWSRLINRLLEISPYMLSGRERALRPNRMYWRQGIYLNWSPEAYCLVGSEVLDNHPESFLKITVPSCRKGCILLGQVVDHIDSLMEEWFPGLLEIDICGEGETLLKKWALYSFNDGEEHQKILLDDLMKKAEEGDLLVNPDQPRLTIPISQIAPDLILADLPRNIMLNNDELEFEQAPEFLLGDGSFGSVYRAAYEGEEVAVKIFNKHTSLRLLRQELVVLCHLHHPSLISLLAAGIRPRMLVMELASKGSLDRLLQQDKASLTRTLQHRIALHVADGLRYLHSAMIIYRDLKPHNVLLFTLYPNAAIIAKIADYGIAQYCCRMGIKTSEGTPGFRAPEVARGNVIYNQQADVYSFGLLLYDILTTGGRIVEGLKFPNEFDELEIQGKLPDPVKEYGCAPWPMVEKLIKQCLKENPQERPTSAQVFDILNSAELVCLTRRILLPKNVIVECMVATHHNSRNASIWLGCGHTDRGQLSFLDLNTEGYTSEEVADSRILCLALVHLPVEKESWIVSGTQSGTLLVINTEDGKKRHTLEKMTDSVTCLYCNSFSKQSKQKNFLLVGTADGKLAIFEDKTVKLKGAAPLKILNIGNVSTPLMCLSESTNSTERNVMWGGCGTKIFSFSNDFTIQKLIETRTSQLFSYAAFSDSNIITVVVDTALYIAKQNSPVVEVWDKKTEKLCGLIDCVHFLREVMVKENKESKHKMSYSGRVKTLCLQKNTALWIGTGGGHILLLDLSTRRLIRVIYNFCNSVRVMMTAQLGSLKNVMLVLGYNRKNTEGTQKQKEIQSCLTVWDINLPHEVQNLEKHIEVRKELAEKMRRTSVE

| IC50 [nM] | Structure (SMILES) |
| --- | --- |
| < 10 | COc1cc(C(=O)N2CCC(N3CCOCC3)CC2)ccc1Nc1nc(OC2CCOCC2)c2c(C#N)c[nH]c2n1 [Example 85] |
| < 10 | COc1cc(C(=O)N2CCOCC2)ccc1Nc1nc(OC2CCOC2)c2c(C#N)c[nH]c2n1 (stereo not drawn) [Example 86, 2-((2-methoxy-4-(morpholine-4-carbonyl)phenyl)amino)-4-((tetrahydrofuran-3-yl)oxy)-7H-pyrrolo[2,3-d]pyrimidine-5-carbonitrile] |
| < 10 | COc1cc(C(=O)N2CCC(N3CCOCC3)CC2)ccc1Nc1nc(OC2CCOC2)c2c(C#N)c[nH]c2n1 (stereo not drawn) [Example 87, 2-((2-methoxy-4-(4-morpholinopiperidine-1-carbonyl)phenyl)amino)-4-((tetrahydrofuran-3-yl)oxy)-7H-pyrrolo[2,3-d]pyrimidine-5-carbonitrile] |
| < 10 | COc1cc(C(=O)N2CCOCC2)ccc1Nc1nc(O[C@H]2CCOC2)c2c(C#N)c[nH]c2n1 [Example 88, (S)-2-((2-methoxy-4-(morpholine-4-carbonyl)phenyl)amino)-4-((tetrahydrofuran-3-yl)oxy)-7H-pyrrolo[2,3-d]pyrimidine-5-carbonitrile] |
| < 10 | COc1cc(C(=O)N2CCOCC2)ccc1Nc1nc(O[C@@H]2CCOC2)c2c(C#N)c[nH]c2n1 [Example 89, (R)-2-((2-methoxy-4-(morpholine-4-carbonyl)phenyl)amino)-4-((tetrahydrofuran-3-yl)oxy)-7H-pyrrolo[2,3-d]pyrimidine-5-carbonitrile] |
| < 10 | COc1cc(C(=O)N2CCOCC2)ccc1Nc1nc(OC(C)C)c2c(C#N)c[nH]c2n1 [Example 90, 4-isoprofoxy-2-((2-methoxy-4-(morpholine-4-carbonyl)phenyl)amino)-7H-pyrrolo[2,3-d]pyrimidine-5-carbonitrile] |
| < 10 | COc1cc(C(=O)N2CCC(N3CCOCC3)CC2)ccc1Nc1nc(OC(C)C)c2c(C#N)c[nH]c2n1 [Example 91, 4-isoprofoxy-2-((2-methoxy-4-(4-morpholinopiperidine-1-carbonyl)phenyl)amino)-7H-pyrrolo[2,3-d] pyrimidine-5-carbonitrile] |
| < 10 | COc1cc(C(=O)N2CCOCC2)c(F)cc1Nc1nc(O[C@H]2CCOC2)c2c(C#N)c[nH]c2n1 [Example 92, (S)-2-((5-fluoro-2-methoxy-4-(morpholine-4-carbonyl)phenyl)amino)-4-((tetrahydrofuran-3-yl)oxy)-7H-pyrrolo[2,3 d]pyrimidine-5-carbonitrile] |
| < 10 | COc1cc(C(=O)N2CCC(N3CCOCC3)CC2)c(F)cc1Nc1nc(O[C@H]2CCOC2)c2c(C#N)c[nH]c2n1 [Example 93, (S)-2-((5-fluoro-2-methoxy-4-(4-morpholinopiperidine-1-carbonyl)phenyl)amino)-4-((tetrahydrofuran-3-yl)oxy)-7H-pyrrolo[2,3-d]pyrimidine-5-carbonitrile] |
| < 10 | Cc1nn(C(C)(C)C#N)cc1Nc1nc(OC2(C)CC2)c2c(C#N)c[nH]c2n1 [Example 94, 2-((1-(2-cyanopropane-2-yl)-3-methyl-1H-pyrazole-4-yl)amino)-4-(1-methylcyclopropoxy)-7H-pyrrolo[2,3-d]pyrimidine-5-carbonitrile] |
| < 10 | COc1cc(C(=O)N2CCOCC2)ccc1Nc1nc(OC2(C)CC2)c2c(C#N)c[nH]c2n1 [Example 95, 2-((2-methoxy-4-(morpholine-4-carbonyl)phenyl)amino)-4-(1-methylcyclopropoxy)-7H-pyrrolo[2,3-d]pyrimidine-5-carbonitrile] |
| < 10 | CC1(Oc2nc(Nc3cnn([C@H]4CCN(C5COC5)C[C@@H]4F)c3Cl)nc3[nH]cc(C#N)c23)CC1 [Example 96, 2-((5-chloro-1-((3S,4S)-3-fluoro-1-(oxetane-3-yl)piperidine-4-yl)-1H-pyrazole-4-yl)amino)(1-methylcyclopropoxy)-7H-pyrrolo[2,3-]pyrimidine-5-carbonitrile] |
